From PubChem BioAssay AID2060490 (Molecular Pharmacology Branch, DTP, NCI, 2025)
Each block holds one compound with its values, some of them ahead of it.

Tested on: 885512-296-R-J2-PDC complex spheroid viability
Test: Anticancer human tumor 885512-296-R-J2-PDC patient-derived breast carcinoma cell line growth inhibition [GQUAD]
Conditions: for IC50: curve of first compound; for viability, T/C: stronger effect = lower value
How it was run: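 Viability of tumor cells grown as complex spheroids with endothelial and stromal cells, exposed to drug combinations. Top concentration at or near clinical Cmax (else 10 microM), diluted in half-log increments.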

[1] = second compound 0.0316 µM, first compound 0.0316 µM
[2] = second compound 0.0316 µM, first compound 0.1 µM
[3] = second compound 0.0316 µM, first compound 0.316 µM
[4] = second compound 0.0316 µM, first compound 1 µM
[5] = second compound 0.0316 µM, first compound 3.16 µM
[6] = second compound 0.0316 µM, first compound 10 µM
[7] = second compound 0.1 µM, first compound 0.0316 µM
[8] = second compound 0.1 µM, first compound 0.1 µM
[9] = second compound 0.1 µM, first compound 0.316 µM
[10] = second compound 0.1 µM, first compound 1 µM
[11] = second compound 0.1 µM, first compound 3.16 µM
[12] = second compound 0.1 µM, first compound 10 µM
[13] = second compound 0.316 µM, first compound 0.0316 µM
[14] = second compound 0.316 µM, first compound 0.1 µM
[15] = second compound 0.316 µM, first compound 0.316 µM
[16] = second compound 0.316 µM, first compound 1 µM
[17] = second compound 0.316 µM, first compound 3.16 µM
[18] = second compound 0.316 µM, first compound 10 µM
[19] = second compound 1 µM, first compound 0.0316 µM
[20] = second compound 1 µM, first compound 0.1 µM
[21] = second compound 1 µM, first compound 0.316 µM
[22] = second compound 1 µM, first compound 1 µM
[23] = second compound 1 µM, first compound 3.16 µM
[24] = second compound 1 µM, first compound 10 µM
[25] = second compound 3.16 µM, first compound 0.0316 µM
[26] = second compound 3.16 µM, first compound 0.1 µM
[27] = second compound 3.16 µM, first compound 0.316 µM
[28] = second compound 3.16 µM, first compound 1 µM
[29] = second compound 3.16 µM, first compound 3.16 µM
[30] = second compound 3.16 µM, first compound 10 µM
[31] = second compound 10 µM, first compound 0.0316 µM
[32] = second compound 10 µM, first compound 0.1 µM
[33] = second compound 10 µM, first compound 0.316 µM
[34] = second compound 10 µM, first compound 1 µM
[35] = second compound 10 µM, first compound 3.16 µM
[36] = second compound 10 µM, first compound 10 µM
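Throughout, for viability, T/C: percent of tumor spheroid viability relative to DMSO vehicle control wells.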

IC50 (second compound 0.0316 µM): < 31.6 nM | IC50 (second compound 0.1 µM): < 31.6 nM | IC50 (second compound 0.316 µM): < 31.6 nM | IC50 (second compound 1 µM): < 31.6 nM | IC50 (second compound 3.16 µM): < 31.6 nM | IC50 (second compound 10 µM): < 31.6 nM
Compound: CC(C)n1c(=O)n(C)c2cnc3cc(F)c(-c4ccc(OCCCN5CCCCC5)nc4)cc3c21 + Cc1cnc(CNC(=O)c2c(=O)c3ccc(N4CCCN(C)CC4)nc3n3c2sc2ccccc23)cn1
viability, T/C [1]: 28.4% | viability, T/C [2]: 20.2% | viability, T/C [3]: 26.6% | viability, T/C [4]: 39.4% | viability, T/C [5]: 46.5% | viability, T/C [6]: 49.1% | viability, T/C [7]: 15% | viability, T/C [8]: 16.6% | viability, T/C [9]: 24% | viability, T/C [10]: 18.1% | viability, T/C [11]: 31.6% | viability, T/C [12]: 30.8% | viability, T/C [13]: 13.3% | viability, T/C [14]: 13.1% | viability, T/C [15]: 12.6% | viability, T/C [16]: 16.9% | viability, T/C [17]: 14.6% | viability, T/C [18]: 19.5% | viability, T/C [19]: 18.1% | viability, T/C [20]: 16.6% | viability, T/C [21]: 16.4% | viability, T/C [22]: 18% | viability, T/C [23]: 23.2% | viability, T/C [24]: 12.4% | viability, T/C [25]: 21.9% | viability, T/C [26]: 23.4% | viability, T/C [27]: 21.7% | viability, T/C [28]: 21.8% | viability, T/C [29]: 24.8% | viability, T/C [30]: 9.39% | viability, T/C [31]: 0.15% | viability, T/C [32]: 0.19% | viability, T/C [33]: 0.2% | viability, T/C [34]: 0.17% | viability, T/C [35]: 0.16% | viability, T/C [36]: 0.16%

Compound: Cn1ncnc1[C@H]1c2n[nH]c(=O)c3cc(F)cc(c23)N[C@@H]1c1ccc(F)cc1 + Cc1[nH]c2ccc(F)cc2c1-c1nc2c3cccnc3c3ncccc3c2[nH]1
IC50 (second compound 0.0316 µM): 277 nM | IC50 (second compound 0.1 µM): 234 nM | IC50 (second compound 0.316 µM): 220 nM | IC50 (second compound 1 µM): 106 nM | IC50 (second compound 3.16 µM): < 0.999 nM | IC50 (second compound 10 µM): < 0.999 nM | viability, T/C (second compound 0.0316 µM, first compound 0.000999 µM): 108% | viability, T/C (second compound 0.0316 µM, first compound 0.00316 µM): 84.1% | viability, T/C (second compound 0.0316 µM, first compound 0.00999 µM): 89.5% | viability, T/C [1]: 86.8% | viability, T/C (second compound 0.0316 µM, first compound 0.0999 µM): 66.4% | viability, T/C [3]: 46.8% | viability, T/C (second compound 0.1 µM, first compound 0.000999 µM): 104% | viability, T/C (second compound 0.1 µM, first compound 0.00316 µM): 101% | viability, T/C (second compound 0.1 µM, first compound 0.00999 µM): 93.9% | viability, T/C [7]: 75.4% | viability, T/C (second compound 0.1 µM, first compound 0.0999 µM): 76.2% | viability, T/C [9]: 41.1% | viability, T/C (second compound 0.316 µM, first compound 0.000999 µM): 90.8% | viability, T/C (second compound 0.316 µM, first compound 0.00316 µM): 82.9% | viability, T/C (second compound 0.316 µM, first compound 0.00999 µM): 82.1% | viability, T/C [13]: 77.3% | viability, T/C (second compound 0.316 µM, first compound 0.0999 µM): 67% | viability, T/C [15]: 42.1% | viability, T/C (second compound 1 µM, first compound 0.000999 µM): 70.8% | viability, T/C (second compound 1 µM, first compound 0.00316 µM): 79.3% | viability, T/C (second compound 1 µM, first compound 0.00999 µM): 67.6% | viability, T/C [19]: 57.7% | viability, T/C (second compound 1 µM, first compound 0.0999 µM): 53.6% | viability, T/C [21]: 34.6% | viability, T/C (second compound 3.16 µM, first compound 0.000999 µM): 25.6% | viability, T/C (second compound 3.16 µM, first compound 0.00316 µM): 23.2% | viability, T/C (second compound 3.16 µM, first compound 0.00999 µM): 17.1% | viability, T/C [25]: 15.6% | viability, T/C (second compound 3.16 µM, first compound 0.0999 µM): 13.8% | viability, T/C [27]: 7.86% | viability, T/C (second compound 10 µM, first compound 0.000999 µM): 3.25% | viability, T/C (second compound 10 µM, first compound 0.00316 µM): 3.75% | viability, T/C (second compound 10 µM, first compound 0.00999 µM): 8.84% | viability, T/C [31]: 2.56% | viability, T/C (second compound 10 µM, first compound 0.0999 µM): 2.53% | viability, T/C [33]: 2.11%

Compound: CC(C)n1c(=O)n(C)c2cnc3cc(F)c(-c4ccc(OCCCN5CCCCC5)nc4)cc3c21 + Cc1[nH]c2ccc(F)cc2c1-c1nc2c3cccnc3c3ncccc3c2[nH]1
IC50 (second compound 0.0316 µM): > 10000 nM | IC50 (second compound 0.1 µM): > 10000 nM | IC50 (second compound 0.316 µM): > 10000 nM | IC50 (second compound 1 µM): 4450 nM | IC50 (second compound 3.16 µM): < 31.6 nM | IC50 (second compound 10 µM): < 31.6 nM | viability, T/C [1]: 84.4% | viability, T/C [2]: 82.5% | viability, T/C [3]: 83.2% | viability, T/C [4]: 103% | viability, T/C [5]: 112% | viability, T/C [6]: 98.9% | viability, T/C [7]: 92.1% | viability, T/C [8]: 92.3% | viability, T/C [9]: 88% | viability, T/C [10]: 104% | viability, T/C [11]: 104% | viability, T/C [12]: 122% | viability, T/C [13]: 89.1% | viability, T/C [14]: 77.6% | viability, T/C [15]: 89.7% | viability, T/C [16]: 90% | viability, T/C [17]: 103% | viability, T/C [18]: 67.3% | viability, T/C [19]: 48.6% | viability, T/C [20]: 68.2% | viability, T/C [21]: 63.9% | viability, T/C [22]: 66% | viability, T/C [23]: 68.8% | viability, T/C [24]: 19% | viability, T/C [25]: 7.3% | viability, T/C [26]: 8.5% | viability, T/C [27]: 13.1% | viability, T/C [28]: 10% | viability, T/C [29]: 10.8% | viability, T/C [30]: 1.66% | viability, T/C [31]: 1.24% | viability, T/C [32]: 4.55% | viability, T/C [33]: 2.57% | viability, T/C [34]: 2.18% | viability, T/C [35]: 2.19% | viability, T/C [36]: 1.31%
